The test system of experiment [1] is Z-138 cells. The experiment can be described thus: Z-138 Methylation Assay (In Cell Western for symmetric di-methyl arginine and DNA content). As to conditions: Homo sapiens, Table A-2, 96 hours, symmetric di-methyl arginine, read-out: ICW EC50. Format: cell-based. The gist of the method:
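Symmetric di-methyl arginine signal (800 nm) ratioed to DNA content (700 nm) by In Cell Western after four days of compound treatment of Z-138 suspension cells seeded at 50,000 cells/mL. Percent inhibition set between DMSO and 3 μM reference wells; IC50 curves from triplicates.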

In experiment [2] the test system is Z-138 cells. The experiment can be described thus: Z-138 Proliferation Assay (Cell Titer Glo, 5 days). Format: cell-based. The following applies: Homo sapiens, 120 h, Table A-2, 5 days, top concentration 20 μM. The gist of the method: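 Exponentially growing Z-138 cells (10,000 cells/ml) in RPMI 1640 with 10% FBS are exposed to nine-point 3-fold dilutions (final top concentration 20 μM, 0.2% DMSO) for 5 days at 37° C. Viability is measured as ATP by CellTiter-Glo luminescence. The 50% inhibitory concentration comes from a 4-parameter fit.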
In general terms: In ATP-based viability assays light output follows the ATP content of the culture.

This note sets out measurements from patent US20150344457A1, “METHODS OF INHIBITING PRMT5” (EPIZYME, INC., priority 2012, published 2015).

Structures are written as SMILES.

For orientation: EC50 means the concentration giving half of the maximal effect. With `CN(c1cccc(OCC(=O)NCC(O)CN2CCc3ccccc3C2)c1)S(C)(=O)=O` (centres unmarked) [Compound A142], the results for the EC50 in the experiment on Z-138 cells [1] and with Z-138 cells [2] were 0.101 to 1 µM and more than 20 µM, respectively.

For `COc1ccc(OCC(=O)NCC(O)CN2CCc3ccccc3C2)cc1` (centres unmarked) [Compound A12], the values for the EC50 in the experiment with Z-138 cells [1] and in the experiment with Z-138 cells [2] were 0.101 to 1 µM and 10 to 50 µM, respectively.

As to `CS(=O)(=O)Nc1ccccc1OCC(=O)NCC(O)CN1CCc2ccccc2C1` (centres unmarked) [Compound A53], the EC50 in the experiment on Z-138 cells [1] was 0.101 to 1 µM; with Z-138 cells [2], 1 to 10 µM.

Regarding `CN(C)c1ccccc1OCC(=O)NCC(O)CN1CCc2ccccc2C1` (centres unmarked) [Compound A38], the results for the EC50 in the experiment with Z-138 cells [1] and in the experiment on Z-138 cells [2] were less than 0.1 µM and 1 to 10 µM, respectively.

`CN1CCC(n2ncc3cc(OCC(=O)NCC(O)CN4CCc5ccccc5C4)ccc32)C1` (centres unmarked) [Compound A96]: the EC50 is 0.101 to 1 µM in the experiment on Z-138 cells [1] and 10 to 50 µM in the experiment on Z-138 cells [2].

For `CC(Oc1ccccc1)C(=O)NCC(O)CN1CCc2ccccc2C1` (centres unmarked) [Compound A19], the EC50 in the experiment with Z-138 cells [1] lay within 0.101 to 1 µM; with Z-138 cells [2] it was 1 to 10 µM.

`CN1CCC(c2ccccc2OCC(=O)NCC(O)CN2CCc3ccccc3C2)CC1` (centres unmarked) [Compound A134]: the EC50 was 1 to 10 µM with Z-138 cells [1] and more than 20 µM in the experiment on Z-138 cells [2].

Consider `CN(C)c1ccc(OCC(=O)NCC(O)CN2CCc3ccccc3C2)cc1` (centres unmarked) [Compound A35], for which the EC50 in the experiment with Z-138 cells [1] lay within 0.101 to 1 µM; in the experiment with Z-138 cells [2], 10 to 50 µM.

Consider `CN1CCN(S(=O)(=O)c2ccccc2OCC(=O)NCC(O)CN2CCc3ccccc3C2)CC1` (centres unmarked) [Compound A108], for which the EC50 lay within 0.101 to 1 µM in the experiment on Z-138 cells [1] and 10 to 50 µM in the experiment with Z-138 cells [2].

On to `NC(=O)c1cccc(OCC(=O)NCC(O)CN2CCc3ccccc3C2)c1` (centres unmarked) [Compound A34], for which the EC50 is 0.101 to 1 µM in the experiment on Z-138 cells [1] and 10 to 50 µM with Z-138 cells [2].

With `N#Cc1ccccc1OCC(=O)NCC(O)CN1CCc2ccccc2C1` (centres unmarked) [Compound A17], the EC50 was in the range of 0.101 to 1 µM in the experiment on Z-138 cells [1] and 10 to 50 µM in the experiment on Z-138 cells [2].

Take `O=C(COc1cccc2ccc(N3CCOCC3)nc12)NCC(O)CN1CCc2ccccc2C1` (centres unmarked) [Compound A48]: the EC50 in the experiment with Z-138 cells [1] fell in the range of 0.101 to 1 µM; with Z-138 cells [2] it was 10 to 50 µM.

With `O=C(COc1cccc2ccccc12)NCC(O)CN1CCc2ccccc2C1` (centres unmarked) [Compound A66], the EC50 with Z-138 cells [1] lay in the range of 0.101 to 1 µM; in the experiment with Z-138 cells [2], 1 to 10 µM.

Take `O=C(COc1ccccc1C1CCCNC1)NCC(O)CN1CCc2ccccc2C1` (centres unmarked) [Compound A117]: the EC50 in the experiment on Z-138 cells [1] was 0.101 to 1 µM; with Z-138 cells [2], 1 to 10 µM.

Take `CN(C)c1ccc2cccc(OCC(=O)NC[C@@H](O)CN3CCc4ccccc4C3)c2n1` [Compound A105]: the EC50 in the experiment on Z-138 cells [1] is 0.101 to 1 µM; in the experiment on Z-138 cells [2], 1 to 10 µM.

As for `CC(C)(Oc1cccc2cccnc12)C(=O)NCC(O)CN1CCc2ccccc2C1` (centres unmarked) [Compound A43], the EC50 in the experiment with Z-138 cells [1] was 0.101 to 1 µM; in the experiment on Z-138 cells [2] it was 1 to 10 µM.

As to `O=C(COc1cccc2cccnc12)NC[C@H](O)CN1CCc2ccccc2C1` [Compound A44], the results for the EC50 with Z-138 cells [1] and with Z-138 cells [2] were 0.101 to 1 µM and 10 to 50 µM, respectively.

Consider `O=C(COc1cccc2c1CNCC2)NCC(O)CN1CCc2ccccc2C1` (centres unmarked) [Compound A119], for which the results for the EC50 in the experiment on Z-138 cells [1] and in the experiment on Z-138 cells [2] were 0.101 to 1 µM and 10 to 50 µM, respectively.

Consider `CS(=O)(=O)Nc1cccc(OCC(=O)NCC(O)CN2CCc3ccccc3C2)c1` (centres unmarked) [Compound A28], for which the figures for the EC50 with Z-138 cells [1] and with Z-138 cells [2] were 0.101 to 1 µM and 1 to 10 µM, respectively.

Regarding `O=C(COc1ccccc1-c1cc[nH]n1)NCC(O)CN1CCc2ccccc2C1` (centres unmarked) [Compound A50], the values for the EC50 in the experiment with Z-138 cells [1] and in the experiment with Z-138 cells [2] were less than 0.1 µM and 1 to 10 µM, respectively.

As to `N#Cc1ccc(OCC(=O)NCC(O)CN2CCc3ccccc3C2)cc1` (centres unmarked) [Compound A11], the EC50 with Z-138 cells [1] was in the range of 0.101 to 1 µM; in the experiment on Z-138 cells [2] it was 10 to 50 µM.

Regarding `NC(=O)c1ccccc1OCC(=O)NCC(O)CN1CCc2ccccc2C1` (centres unmarked) [Compound A29], the results for the EC50 with Z-138 cells [1] and with Z-138 cells [2] were 0.101 to 1 µM and more than 20 µM, respectively.

Regarding `CS(=O)(=O)c1cccc(OCC(=O)NCC(O)CN2CCc3ccccc3C2)c1` (centres unmarked) [Compound A47], the EC50 in the experiment on Z-138 cells [1] was 0.101 to 1 µM; in the experiment on Z-138 cells [2] it was 1 to 10 µM.

On to `O=C(COc1ccccc1S(=O)(=O)N1CCC(O)C1)NCC(O)CN1CCc2ccccc2C1` (centres unmarked) [Compound A111], for which the EC50 in the experiment with Z-138 cells [1] is less than 0.1 µM; with Z-138 cells [2], 0.101 to 1 µM.

As to `CC(=O)Nc1ccc(OCC(=O)NCC(O)CN2CCc3ccccc3C2)cc1` (centres unmarked) [Compound A21], the EC50 in the experiment on Z-138 cells [1] is 0.101 to 1 µM; in the experiment on Z-138 cells [2] it was more than 20 µM.

`O=C(COc1ccccc1C1CCNC1)NCC(O)CN1CCc2ccccc2C1` (centres unmarked) [Compound A116]: the figures for the concentration for a half-maximal effect (EC50) with Z-138 cells [1] and with Z-138 cells [2] were 1 to 10 µM and more than 20 µM, respectively.

Take `CN(C)C(=O)c1ccccc1OCC(=O)NCC(O)CN1CCc2ccccc2C1` (centres unmarked) [Compound A113]: the EC50 was 0.101 to 1 µM in the experiment on Z-138 cells [1] and 10 to 50 µM with Z-138 cells [2].

For `O=C(COc1ccccc1-c1ncc[nH]1)NCC(O)CN1CCc2ccccc2C1` (centres unmarked) [Compound A137], the EC50 in the experiment on Z-138 cells [1] is 1 to 10 µM; in the experiment with Z-138 cells [2] it was more than 20 µM.

In the case of `CS(=O)(=O)N1CCN(c2ccccc2OCC(=O)NCC(O)CN2CCc3ccccc3C2)CC1` (centres unmarked) [Compound A106], the EC50 in the experiment on Z-138 cells [1] is 0.101 to 1 µM; with Z-138 cells [2], more than 20 µM.

Consider `CNS(=O)(=O)c1ccccc1OCC(=O)NCC(O)CN1CCc2ccccc2C1` (centres unmarked) [Compound A123], for which the EC50 with Z-138 cells [1] lay in the range of 0.101 to 1 µM; in the experiment with Z-138 cells [2] it was 1 to 10 µM.

On to `O=C(COc1ccccc1-c1cc[nH]n1)NC[C@@H](O)CN1CCc2ccccc2C1` [Compound A67], for which the EC50 was less than 0.1 µM in the experiment with Z-138 cells [1] and 1 to 10 µM in the experiment on Z-138 cells [2].

Consider `COc1cccc(OCC(=O)NCC(O)CN2CCc3ccccc3C2)c1` (centres unmarked) [Compound A20], for which the EC50 fell in the range of 0.101 to 1 µM with Z-138 cells [1] and 1 to 10 µM in the experiment on Z-138 cells [2].

Consider `Cc1cccc(OCC(=O)NCC(O)CN2CCc3ccccc3C2)c1` (centres unmarked) [Compound A26], for which the EC50 in the experiment with Z-138 cells [1] lay within 0.101 to 1 µM; in the experiment on Z-138 cells [2] it was 1 to 10 µM.

With `O=C(COc1ccccc1-c1cc[nH]n1)NC[C@H](O)CN1CCc2ccccc2C1` [Compound A68], the figures for the EC50 in the experiment with Z-138 cells [1] and in the experiment on Z-138 cells [2] were 0.101 to 1 µM and more than 20 µM, respectively.
